# According to patent US20070292912A1, “Diffusion-controlling sensor layer” (priority 1999, published 2007):
# Key:
# [1] = test system: Escherichia coli strain SM101 (pEBZ181) recA-lux SOS reporter gene cells; assay: Microtitre plate assay with SOS reporter gene system (recA-lux bioluminescence stimulated by ciprofloxacin); type: cell-based; details: for Rel. bioluminescence: microtitre plate, 28° C., 60 min, relative to CTAB-free reference
# From the text: (§1) The reporter gene cell consists of the Escherichia coli strain SM101 which harbours the recombinant plasmid pEBZ181. This plasmid encodes a fusion between the recA promoter from E. coli and the structural genes of the bacterial luminescence of Vibrio fischeri (lux genes C, D, A, B, E and G). To construct the plasmid, the recA promoter-harbouring Bam H I fragment from the plasmid pUA80 [Barbe J, Fernandez de Henestrosa A R, Calero S, and Gilbert I (1991) Chromogenic Method for rapid isolation of recA-like mutants of Gram-negative bacteria. J. Bacteriol. 173: 404-406] was cloned into a derivative of the vector pEBZ112 [Peitzsch N, Eberz G, and Nies D (1998) Alcaligenes eutrophus as a bacterial chromate sensor. Appl. Environm. Microbiol. 64: 453-458] which harbours, inserted into the Nco I site of the luxG gene, a lacZ cassette [Becker A (1993) Analyse der Succinoglycan-Biosyntheseregion von Rhizobium meliloti 2011: Untersuchungen zur Identifizierung des bakteriellen Infektionssignals in der Symbiose mit Luzeme, doctoral thesis, Bielefeld University, Germany]. Plasmid pEBZ181 was transformed by standard methods [Sambrook J, Fritsch E F, and Maniatis T (1989) Molecular cloning: A laboratory manual (2nd edn), Cold Spring Harbor Laboratory Press] into the Escherichia coli strain SMIOI (obtained from E. coli Genetic Stock Center, Yale University, New Haven, USA) and employed for bioimaging experiments.
# (§2) Treatment of bacteria with antibacterial agents such as 4-quinolonecarboxylic acids leads to induction of the so-called SOS repair mechanism [Walker C G (1984) Mutagenesis and inducible responses to deoxyribonucleic acid damage in Escherichia coli. Microbiol. Rev. 48: 60-93; Phillips I, Culabras E, Moreno F, and Baquero F (1987) Induction of the SOS response by new 4-quinolones. J. Antimicrob. Chemother. 20: 631-638; Piddock L J V, and Wise R (1987) Induction of the SOS response in Escherichia coli by 4-quinone antimicrobial agents. FEMS Microbiol. Lett. 41: 289-294]. The RecA protein is a main regulator of this repair mechanism, and SOS induction leads to enhanced expression of the recA gene. Measurement of the synthesis of the RecA protein [Little J W and Mount D W (1982) The SOS regulatory system of Escherichia coli. Cell 29: 11-22; Witkin E M (1976) Ultraviolet mutagenesis and inducible DNA repair in Escherichia coli. Bacteriol. Rev. 40: 864-907] or of recA-reporter gene fusions [Nunoshiba T and Nishioka H (1991) Rec-lac test for detecting SOS-inducing activity of environmental genotoxic substances. Mutation Res. 254:71-77] is one possible way of measuring SOS induction and consequently the effect of 4-quinolonecarboxylic acids. Since the strain E. coli SM101 (pEBZ181) harbours a plasmid with a recA-lux reporter gene fusion, it is suitable for detecting 4-quinolonecarboxylic acids or other SOS-inducing compounds. The presence of such compounds leads to enhanced expression of the luciferase gene and thus to a stimulation of bioluminescence.
# In both assay formats ciprofloxacin was used for effect-specific induction of the SOS response. The bioluminescence stimulated in the reporter gene system used in this case provided the read-out signal which was recorded by video imaging. In order to test the tolerance of the two bioassay formats to interfering substances, assays were carried out in the presence of cytotoxic cetyltrimethylammonium bromide (CTAB).
# Five assay solutions were made up in a 96-well microtitre plate (Dynatech Microlite). A volume of 200 μl contained in each case:
# 16 μl of reporter gene cell suspension (OD: 1.2 at 660 nm) in 2% LB medium
# 90 μl of solution of substances 1.-5. in water
# 1. 25 ng of ciprofloxacin hydrochloride monohydrate
# 2. 25 ng of ciprofloxacin hydrochloride monohydrate+50 ng of CTAB
# 3. 25 ng of ciprofloxacin hydrochloride monohydrate+100 ng of CTAB
# 4. 25 ng of ciprofloxacin hydrochloride monohydrate+200 ng of CTAB
# 5. 25 ng of ciprofloxacin hydrochloride monohydrate+500 ng of CTAB […]
# [2] = test system: Escherichia coli strain SM101 (pEBZ181) recA-lux SOS reporter gene cells; assay: Activity measurement with the diffusion-controlling sensor layer (SOS reporter gene cells in agarose on TLC plate); type: cell-based; details: for Rel. bioluminescence: sensor layer 2 mm, 28° C., 60 min
# From the text: as §1
# as §2, with “Mutation Res. 254:71-77] is one possible way of measuring SOS induction and consequently the effect of 4-quinolonecarboxylic acids. Since the strain E. coli SM101 (pEBZ181) harbours a plasmid with a recA-lux reporter gene fusion, it is suitable for detecting 4-quinolonecarboxylic acids or other SOS-inducing compounds. The presence of such compounds leads to enhanced expression of the luciferase gene and thus to a stimulation of bioluminescence.” left out
# In both assay formats ciprofloxacin was used for effect-specific induction of the SOS response. The bioluminescence stimulated in the reporter gene system used in this case provided the read-out signal which was recorded by video imaging. […]
structure (smiles),measurement,setting,value
"CCCCCCCCCCCCCCCC[N+](C)(C)C.[Br-] [CTAB, cetyltrimethylammonium bromide]",Rel. bioluminescence,[1]; CTAB 50 ng/200 μl with 25 ng ciprofloxacin hydrochloride monohydrate,0.88
same,Rel. bioluminescence,[1]; CTAB 100 ng/200 μl with 25 ng ciprofloxacin hydrochloride monohydrate,0.87
same,Rel. bioluminescence,[1]; CTAB 200 ng/200 μl with 25 ng ciprofloxacin hydrochloride monohydrate,0.78
same,Rel. bioluminescence,[1]; CTAB 500 ng/200 μl with 25 ng ciprofloxacin hydrochloride monohydrate,0.44
same,reduction in bioluminescence,"[1]; microtitre plate format, CTAB concentrations up to 500 ng/200 μl, ciprofloxacin-stimulated",more than 50%
same,fall in the bioluminescence (of the initial value),"[1]; microtitre plate format, addition of CTAB, ciprofloxacin-stimulated",about 40%
same,Rel. bioluminescence,[2]; CTAB 250 ng/200 μl (calculated analogous concentration) with 10 ng ciprofloxacin hydrochloride monohydrate,1.002
same,Rel. bioluminescence,[2]; CTAB 500 ng/200 μl (calculated analogous concentration) with 10 ng ciprofloxacin hydrochloride monohydrate,1.023
same,bioactivity measurement on addition of CTAB,"[2]; sensor layer format, ciprofloxacin-stimulated bioluminescence",not impaired
same,relative bioluminescence as a measure of the selective stimulation by ciprofloxacin,"[2]; sensor layer format, up to CTAB concentrations of 500 ng/200 μl",remained constant
